The subject of test [1] is BaF3 (EGFR L858R/T790M/C797S). In words: Cell proliferation IC50 assay (Cell Titer GLO), BaF3 LTC cells. Type of test: cell-based. The settings on record: Mus musculus, Ba/F3 EGFR, Table 6, 72 h. The protocol:
(§1) IC50 of compounds in the present invention was determined by Cell Titer GLO reagent from Promega. The procedures are as follows:
(§2) Tumor cells were cultured in specified medium in an incubator at 37° C. and 5% CO2. The cells were passaged periodically. Cells at the logarithmic growth phase were collected for plating at a density of 2000-4000 cells/well. The next day, the compounds of the present invention were serially diluted and added to the cells, with DMSO being the negative control and the culture media without cells being the blank control. The plate was incubated in the incubator for 72 h. The cell viability assay was performed by adding the detection reagents to the cell culture media according to Cell Titer GLO reagent instructions and detecting luminescent signals on an EnVision microplate reader (PerkinElmer).
(§3) Inhibition of cell growth by the compounds of the present invention was plotted by Prism Graphpad software for statistically calculating the IC50 of the compound of the present invention.

Test [2] concerns BaF3 (EGFR WT). In words: Cell proliferation IC50 assay (Cell Titer GLO), BaF3 WT cells. The class given is cell-based. The settings on record: Mus musculus, Ba/F3 EGFR, Table 6, 10 ng/ml EGF, 72 h. The protocol: as §1, §2, §3
The test system of test [3] is A431. In words: Cell proliferation IC50 assay (Cell Titer GLO), A431 cells. The class given is cell-based. The settings on record: Homo sapiens. The protocol: as §1, §2, §3
In general terms: In ATP-based viability assays light output follows the ATP content of the culture.

The target in test [4] is T1, BaF3 (EGFR Del19/C797S) (Homo sapiens, UniProt P00533, C797S, cells depend on it, form not given).
T1 construct: BaF3 (EGFR Del19/C797S)|DC|RPMI1640 + 10% FBS
T1 sequence (P00533 with tags, fused parts or gaps DEL746-750/C797S, form open): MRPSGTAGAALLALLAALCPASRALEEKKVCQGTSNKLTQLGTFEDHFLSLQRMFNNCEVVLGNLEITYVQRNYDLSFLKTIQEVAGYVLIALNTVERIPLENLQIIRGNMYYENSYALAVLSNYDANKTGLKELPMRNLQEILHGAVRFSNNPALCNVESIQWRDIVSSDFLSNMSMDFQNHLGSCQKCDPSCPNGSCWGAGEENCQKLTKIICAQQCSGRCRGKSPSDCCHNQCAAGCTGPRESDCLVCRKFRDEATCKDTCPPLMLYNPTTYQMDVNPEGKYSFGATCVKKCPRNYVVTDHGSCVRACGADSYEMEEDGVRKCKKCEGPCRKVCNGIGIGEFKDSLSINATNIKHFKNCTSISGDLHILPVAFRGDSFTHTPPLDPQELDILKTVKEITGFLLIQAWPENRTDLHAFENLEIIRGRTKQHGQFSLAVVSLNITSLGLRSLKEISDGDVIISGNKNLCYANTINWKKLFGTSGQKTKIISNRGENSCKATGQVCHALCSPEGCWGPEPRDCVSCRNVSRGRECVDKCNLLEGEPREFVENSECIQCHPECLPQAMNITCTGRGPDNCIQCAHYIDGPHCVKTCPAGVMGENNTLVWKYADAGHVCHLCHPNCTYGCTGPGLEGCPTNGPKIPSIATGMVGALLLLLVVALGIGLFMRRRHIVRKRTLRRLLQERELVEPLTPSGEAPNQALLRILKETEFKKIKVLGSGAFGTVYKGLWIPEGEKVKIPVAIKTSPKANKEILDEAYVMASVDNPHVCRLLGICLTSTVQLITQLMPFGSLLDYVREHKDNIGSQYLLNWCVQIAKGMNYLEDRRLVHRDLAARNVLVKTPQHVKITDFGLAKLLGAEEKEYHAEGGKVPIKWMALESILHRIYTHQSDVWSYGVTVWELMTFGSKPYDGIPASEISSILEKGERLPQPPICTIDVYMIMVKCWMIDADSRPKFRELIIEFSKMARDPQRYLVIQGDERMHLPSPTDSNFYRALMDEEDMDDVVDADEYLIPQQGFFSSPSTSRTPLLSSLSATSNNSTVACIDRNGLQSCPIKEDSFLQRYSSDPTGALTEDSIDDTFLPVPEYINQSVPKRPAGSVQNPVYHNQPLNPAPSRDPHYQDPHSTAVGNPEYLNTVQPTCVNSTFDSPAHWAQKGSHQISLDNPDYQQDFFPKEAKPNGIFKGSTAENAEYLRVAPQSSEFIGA
In words: Cell proliferation IC50 assay (Cell Titer GLO), BaF3 DC cells. The class given is cell-based, mouse. The settings on record: Table 6, 72 h. The protocol: as §1, §2, §3

Where [5] appears, read: A-431, Table 6, A431, 72 h, read-out: A431 IC50.

SMILES strings stand for the structures. Like-named read-outs stand apart in the source and are kept apart here.

As a reminder, the IC50 is the concentration that inhibits the measured activity by half.

For the molecule `CCc1cc(Nc2nc(Nc3ccccc3P(C)(C)=O)c3cc[nH]c3n2)c(C(C)(C)O)cc1N1CCC(N2CCN(CCCCOc3cccc4c3CN(C3CCC(=O)NC3=O)C4=O)CC2)CC1` (centres unmarked) [Example E142], the IC50 is 1.1 µM in test [1], 0.792 µM in test [2], > 4000 nM in test [3] (setting [5]) and 0.124 µM in test [4].

Take `CCc1cc(Nc2ncc(-c3cnn(C)c3)c(Nc3ccc(C)cc3P(C)(C)=O)n2)c(OC)cc1N1CCC(N2CCN(Cc3ccc4c(c3)CN(C3CCC(=O)NC3=O)C4=O)CC2)CC1` (centres unmarked) [Example E216]: the IC50 was > 4 µM in test [1], 0.926 µM in test [2], > 4000 nM in test [3] (setting [5]) and 0.001 µM in test [4].

With `CCc1cc(Nc2ncc(Cl)c(Nc3ccccc3P(C)(C)=O)n2)c(OC)cc1N1CCC2(CCN(C(=O)CCCOc3cccc4c3CN(C3CCC(=O)NC3=O)C4=O)CC2)CC1` (centres unmarked) [Example E90], the IC50 was 0.143 µM in test [1], 2.07 µM in test [2], ≥ 3700 nM in test [3] (setting [5]) and 0.0131 µM in test [4].

As to `CCc1cc(Nc2ncc(-c3ccn(C)n3)c(Nc3ccccc3P(C)(C)=O)n2)c(OC)cc1N1CCC(N2CCN(CCOc3cccc4c3CN(C3CCC(=O)NC3=O)C4=O)CC2)CC1` (centres unmarked) [Example E147], the IC50 in test [1] was 2 µM; in test [2], 1.57 µM; in test [3] (setting [5]), > 4000 nM; in test [4], 0.0561 µM.

On to `CCc1cc(Nc2ncc(Cl)c(Nc3ccccc3P(C)(C)=O)n2)c(OC)cc1N1CCC(N2CCN([C@H]3C[C@@H](Oc4cccc5c4CN(C4CCC(=O)NC4=O)C5=O)C3)CC2)CC1` (some centres unmarked) [Example E159], for which the IC50 amounted to 0.0219 µM in test [1], 0.646 µM in test [2], 1850 nM in test [3] (setting [5]) and 0.0014 µM in test [4].

As to `CCc1cc(Nc2ncc(-n3cncn3)c(Nc3ccccc3P(C)(C)=O)n2)c(OC)cc1N1CCC(N2CCN(CCOc3cccc4c3CN(C3CCC(=O)NC3=O)C4=O)CC2)CC1` (centres unmarked) [Example E171], the half-inhibitory concentration (IC50) in test [1] was > 4 µM; in test [2], > 4 µM; in test [3] (setting [5]) it was > 4000 nM; in test [4], 0.0063 µM.

In the case of `CCc1cc(Nc2ncc(Cl)c(Nc3ccccc3P(C)(C)=O)n2)c(OC)cc1N1CCC(N2CCN(CCOc3cc(F)cc4c3CN(C3CCC(=O)NC3=O)C4=O)CC2)CC1` (centres unmarked) [Example E66], the IC50 came out at 0.0597 µM in test [1], 2.49 µM in test [2], 1990 nM in test [3] (setting [5]) and 0.0106 µM in test [4].

As for `CCc1cc(Nc2ncc(Cl)c(Nc3ccccc3P(C)(C)=O)n2)c(OC)cc1N1CCC(N2CCN(CCC#Cc3ccc4c(c3)c(N3CCC(=O)NC3=O)nn4C)CC2)CC1` [Example E145], the IC50 in test [1] is 0.506 µM; in test [2], > 4 µM; in test [3] (setting [5]) it was 1110 nM; in test [4], 0.0791 µM.

`COc1cc(N2CCC(N3CCN(CCC#Cc4cccc5c4CN(C4CCC(=O)NC4=O)C5=O)CC3)CC2)c(C#N)cc1Nc1ncc(Cl)c(Nc2ccccc2P(C)(C)=O)n1` (centres unmarked) [Example E52]: the IC50 is 0.0417 µM in test [1], > 4 µM in test [2], 1040 nM in test [3] (setting [5]) and 0.0152 µM in test [4].

For `CCc1cc(Nc2ncc(Cl)c(Nc3ccccc3P(C)(C)=O)n2)c(OC)cc1N1CCC2(CCN(CCCC#Cc3c(F)ccc4c3CN(C3CCC(=O)NC3=O)C4=O)CC2)CC1` (centres unmarked) [Example E74], the half-inhibitory concentration (IC50) in test [1] is 0.16 µM; in test [2], > 4 µM; in test [3] (setting [5]), > 4000 nM; in test [4], 0.0376 µM.

In the case of `CCc1cc(Nc2ncc(-c3ccnn3C)c(Nc3ccccc3P(C)(C)=O)n2)c(OC)cc1N1CCC(N2CCN(CCOc3cccc4c3CN(C3CCC(=O)NC3=O)C4=O)CC2)CC1` (centres unmarked) [Example E176], the IC50 in test [1] was > 4 µM; in test [2], > 4 µM; in test [3] (setting [5]) it was > 4000 nM; in test [4] it was 0.0024 µM.

As for `CCc1cc(Nc2ncc(Cl)c(Nc3ccccc3N(C)S(C)(=O)=O)n2)c(OC)cc1N1CCC(N2CCN(CCC#Cc3cccc4c3CN(C3CCC(=O)NC3=O)C4=O)CC2)CC1` (centres unmarked) [Example E42], the IC50 was 0.0434 µM in test [1], 0.0907 µM in test [2], 1140 nM in test [3] (setting [5]) and 0.0056 µM in test [4].

Take `CCc1cc(Nc2nc(Nc3ccccc3P(C)(C)=O)c3cn[nH]c3n2)c(OC)cc1N1CCC(N2CCN(CCCCOc3cccc4c3CN(C3CCC(=O)NC3=O)C4=O)CC2)CC1` (centres unmarked) [Example E161]: the IC50 in test [1] stood at 0.135 µM; in test [2] it was 1.19 µM; in test [3] (setting [5]) it was 1290 nM; in test [4], 0.002 µM.

For the molecule `CCc1cc(Nc2ncc(Cl)c(Nc3ccccc3P(C)(C)=O)n2)c(OC)cc1N1CCC(N2CCN(CCOc3cccc4c3CN(C3CCC(=O)NC3=O)C4=O)C3(CC3)C2)CC1` (centres unmarked) [Example E144], the IC50 was 0.105 µM in test [1], 1.2 µM in test [2], 1370 nM in test [3] (setting [5]) and 0.0352 µM in test [4].

For the molecule `CCc1cc(Nc2ncc(Cl)c(Nc3ccccc3P(C)(C)=O)n2)c(OC)cc1N1CCC2(CC1)CC(N(C)CCCC#Cc1cccc3c1CN(C1CCC(=O)NC1=O)C3=O)C2` (centres unmarked) [Example E60], the IC50 in test [1] is 0.0771 µM; in test [2], > 4 µM; in test [3] (setting [5]) it was > 4000 nM; in test [4], 0.0397 µM.

With `CCc1cc(Nc2ncc(-n3cnc(C)n3)c(Nc3ccccc3P(C)(C)=O)n2)c(OC)cc1N1CCC(N2CCN(CCOc3ccc4c(c3)CN(C3CCC(=O)NC3=O)C4=O)CC2)CC1` (centres unmarked) [Example E218], the IC50 is > 4 µM in test [1], 2.09 µM in test [2], > 4000 nM in test [3] (setting [5]) and 0.001 µM in test [4].

As for `CCc1cc(Nc2ncc(C(=O)N3CCCC3)c(Nc3ccccc3P(C)(C)=O)n2)c(OC)cc1N1CCC(N2CCN(CCOc3cccc4c3CN(C3CCC(=O)NC3=O)C4=O)CC2)CC1` (centres unmarked) [Example E148], the IC50 is > 4 µM in test [1], > 4 µM in test [2], > 4000 nM in test [3] (setting [5]) and 0.0093 µM in test [4].

With `CCc1cc(Nc2ncc(-c3cnn(C)c3)c(Nc3ccccc3P(C)(C)=O)n2)c(OC)cc1N1CCC(N2CCN([C@H]3C[C@H](Oc4cccc5c4CN(C4CCC(=O)NC4=O)C5=O)C3)CC2)CC1` (some centres unmarked) [Example E70], the IC50 in test [1] is > 4 µM; in test [2], 0.267 µM; in test [3] (setting [5]) it was 1250 nM; in test [4], 0.0007 µM.

On to `CCc1cc(Nc2ncc(Cl)c(Nc3ccccc3P(C)(C)=O)n2)c(OC)cc1N1CCC(N2CCc3ccc(Oc4cccc5c4CN(C4CCC(=O)NC4=O)C5=O)cc3CC2)CC1` (centres unmarked) [Example E34], for which the IC50 in test [1] came out at 0.0169 µM; in test [2] it was 1.26 µM; in test [3] (setting [5]), 1480 nM; in test [4] it was 0.0025 µM.

For the molecule `CCc1cc(Nc2ncc(Cl)c(Nc3ccccc3P(C)(C)=O)n2)c(OC)cc1N1CCC(N2CCN(CCN(C)c3ccc4c(c3)CN(C3CCC(=O)NC3=O)C4=O)CC2)CC1` (centres unmarked) [Example E223], the IC50 in test [1] is 0.0694 µM; in test [2], > 4 µM; in test [3] (A-431, 72 h, read-out: A431 IC50 (nM)), > 4000 nM; in test [4], 0.0115 µM.

As for `CCc1cc(Nc2ncc(-c3cn(C)nn3)c(Nc3ccccc3P(C)(C)=O)n2)c(OC)cc1N1CCC(N2CCN(CCOc3ccc4c(c3)CN(C3CCC(=O)NC3=O)C4=O)CC2)CC1` (centres unmarked) [Example E193], the IC50 was > 4 µM in test [1], 1.32 µM in test [2], > 4000 nM in test [3] (setting [5]) and 0.0149 µM in test [4].

Take `CCc1cc(Nc2ncc(Cl)c(Nc3ccccc3P(C)(C)=O)n2)c(OC)cc1N1CCC(N2CCN(CCCc3cccc4c3CN(C3CCC(=O)NC3=O)C4=O)C(=O)C2)CC1` (centres unmarked) [Example E107]: the IC50 in test [1] is 0.158 µM; in test [2], > 4 µM; in test [3] (setting [5]), 1340 nM; in test [4], 0.0121 µM.

With `CCc1cc(Nc2ncc(-n3ccnc3)c(Nc3ccccc3P(C)(C)=O)n2)c(OC)cc1N1CCC(N2CCN(CCOc3cccc4c3CN(C3CCC(=O)NC3=O)C4=O)CC2)CC1` (centres unmarked) [Example E170], the half-maximal inhibitory concentration (IC50) in test [1] was > 4 µM; in test [2], > 4 µM; in test [3] (setting [5]), > 4000 nM; in test [4], 0.0035 µM.

As to `CCc1cc(Nc2ncc(-c3nnc(C)o3)c(Nc3ccccc3P(C)(C)=O)n2)c(OC)cc1N1CCC(N2CCN(CCOc3cccc4c3CN(C3CCC(=O)NC3=O)C4=O)CC2)CC1` (centres unmarked) [Example E177], the IC50 in test [1] is > 4 µM; in test [2], > 4 µM; in test [3] (setting [5]), > 4000 nM; in test [4] it was 0.0157 µM.

With `COc1cc2c(cc1Nc1ncc(Cl)c(Nc3ccccc3P(C)(C)=O)n1)CCN(C1CCN(C(=O)COc3cccc4c3CN(C3CCC(=O)NC3=O)C4=O)CC1)C2` (centres unmarked) [Example E100], the IC50 in test [1] was 1.13 µM; in test [2], 1.23 µM; in test [3] (setting [5]) it was > 4000 nM; in test [4], 0.515 µM.

On to `CCc1cc(Nc2ncc(-c3cnn(C)c3)c(Nc3ccccc3P(C)(C)=O)n2)c(OC)cc1N1CCC(N2CCN(CCOc3cc4c(cc3F)C(=O)N(C3CCC(=O)NC3=O)C4)CC2)CC1` (centres unmarked) [Example E189], for which the IC50 in test [1] was > 4 µM; in test [2] it was 0.495 µM; in test [3] (setting [5]), 1010 nM; in test [4], 0.0008 µM.
